In brackets after ≈: the same amount, converted by molar mass.

Results on three compounds are retold here after DBAASP.

Assay in all cases: ≥ marks a high value that may be exact or a test limit, other limits are often not marked, values filed in µg/mL are converted to µM
Test [1] relates to Pseudomonas aeruginosa K799.
Test [2] relates to Pseudomonas aeruginosa H547.
Test [3] has as its system Salmonella enterica subsp. enterica serovar Typhimurium ATCC 14028s.
The test system of test [4] is Pseudomonas aeruginosa H374.
Test [5] deals with Pseudomonas aeruginosa H744.
Test [6] has as its system Escherichia coli UB1005.
Test [7] relates to Pseudomonas aeruginosa Z61.
Test [8] concerns Staphylococcus aureus ATCC BAA-1556.
For test [9], the system named is Escherichia coli ATCC 25922.
Test [10] deals with Trichophyton mentagrophytes TIMM 1189.
The test system of test [11] is Candida albicans TIMM 0144.

For the compound `CC[C@H](C)[C@H](NC(=O)[C@H](CC(C)C)NC(=O)[C@H](C)NC(=O)[C@@H]1CCCN1C(=O)[C@H](CC(C)C)NC(=O)CNC(=O)[C@@H](NC(=O)[C@@H](NC(=O)[C@H](CC(C)C)NC(=O)[C@@H](NC(=O)[C@H](CCCCN)NC(=O)[C@H](CO)NC(=O)CNC(=O)CNC(=O)[C@H](CCCCN)NC(=O)[C@@H](NC(=O)[C@H](CC(C)C)NC(=O)[C@H](CC(N)=O)NC(=O)[C@H](CCCCN)NC(=O)[C@@H](NC(=O)[C@H](Cc1ccccc1)NC(=O)[C@H](CCCCN)NC(=O)[C@H](CCCCN)NC(=O)[C@H](Cc1c[nH]c2ccccc12)NC(=O)[C@@H](N)CCCCN)[C@@H](C)CC)[C@@H](C)O)[C@@H](C)CC)[C@@H](C)O)[C@@H](C)O)C(=O)N[C@@H](CO)C(=O)O` [KWKKFIKNLTKGGSKILTTGLPALIS], the MIC turned out to be 11.3 µM (≈ 32 µg/mL) in test [1]; 5.63 µM (≈ 16 µg/mL) in test [2]; 5.63 µM (≈ 16 µg/mL) in [3]; 1.41 µM (≈ 4 µg/mL) in test [4]; 1.41 µM (≈ 4 µg/mL) in [5]; 0.703 µM (≈ 2 µg/mL) in test [6]. The compound further had an MIC in [7] of 6.68 µM (≈ 19 µg/mL).
As for `CC(C)C[C@H](NC(=O)[C@H](CC(C)C)NC(=O)[C@H](CCCCN)NC(=O)[C@H](CC(C)C)NC(=O)[C@H](CC(C)C)NC(=O)[C@H](CC(C)C)NC(=O)[C@H](CCCCN)NC(=O)[C@@H](N)CC(C)C)C(N)=O` [LKLLLKLL], in test [8], the MIC was not below 100 µM.
For the compound `CC[C@H](C)[C@H](NC(=O)[C@@H]1CSSC[C@H](NC(=O)[C@H](CCCCN)NC(=O)[C@@H](N)[C@@H](C)O)C(=O)N[C@@H](Cc2ccccc2)C(=O)N[C@@H](CCC(N)=O)C(=O)N[C@@H](Cc2c[nH]c3ccccc23)C(=O)N[C@@H](CCC(N)=O)C(=O)N[C@@H](CCCN=C(N)N)C(=O)N[C@@H](CC(N)=O)C(=O)N[C@@H](CCSC)C(=O)N[C@@H](CCCN=C(N)N)C(=O)N[C@@H](CCCCN)C(=O)N[C@@H](C(C)C)C(=O)N[C@@H](CCCN=C(N)N)C(=O)NCC(=O)N2CCC[C@H]2C(=O)N2CCC[C@H]2C(=O)N[C@@H](C(C)C)C(=O)N[C@@H](CO)C(=O)N1)C(=O)N[C@@H](CCCCN)C(=O)N[C@@H](CCCN=C(N)N)C(=O)N[C@@H](CC(=O)O)C(=O)N[C@@H](CO)C(=O)O` [TKCFQWQRNMRKVRGPPVSCIKRDS], the MIC in test [9] was more than 128 µM; in test [10] it was 16.5 µM (≈ 50 µg/mL); in test [11] it was not below 33.1 µM.
